Experimental findings from ChEMBL document CHEMBL1141956, “New heterocyclic analogues of 4-(2-chloro-5-methoxyanilino)quinazolines as potent and selective c-Src kinase inhibitors” (Bioorg Med Chem Lett, 2005) are described below.

Converted amounts (≈) assume the structure as drawn.

Proto-oncogene tyrosine-protein kinase Src, sequence (P12931 2-536 limits assumed): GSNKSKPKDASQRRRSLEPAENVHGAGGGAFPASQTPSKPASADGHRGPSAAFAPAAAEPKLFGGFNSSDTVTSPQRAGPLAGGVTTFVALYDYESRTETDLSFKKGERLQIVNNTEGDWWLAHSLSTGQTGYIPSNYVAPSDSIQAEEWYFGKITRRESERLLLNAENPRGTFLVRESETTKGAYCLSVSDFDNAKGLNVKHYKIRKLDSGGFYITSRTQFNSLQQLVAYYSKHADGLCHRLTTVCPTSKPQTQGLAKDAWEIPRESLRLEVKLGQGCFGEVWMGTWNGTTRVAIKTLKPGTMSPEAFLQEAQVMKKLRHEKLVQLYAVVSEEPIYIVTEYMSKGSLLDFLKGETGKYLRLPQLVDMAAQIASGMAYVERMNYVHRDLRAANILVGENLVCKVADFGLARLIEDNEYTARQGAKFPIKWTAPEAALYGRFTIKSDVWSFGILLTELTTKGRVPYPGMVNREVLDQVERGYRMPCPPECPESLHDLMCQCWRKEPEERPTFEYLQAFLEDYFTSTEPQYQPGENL
Vascular endothelial growth factor receptor 2, sequence (P35968 whole entry): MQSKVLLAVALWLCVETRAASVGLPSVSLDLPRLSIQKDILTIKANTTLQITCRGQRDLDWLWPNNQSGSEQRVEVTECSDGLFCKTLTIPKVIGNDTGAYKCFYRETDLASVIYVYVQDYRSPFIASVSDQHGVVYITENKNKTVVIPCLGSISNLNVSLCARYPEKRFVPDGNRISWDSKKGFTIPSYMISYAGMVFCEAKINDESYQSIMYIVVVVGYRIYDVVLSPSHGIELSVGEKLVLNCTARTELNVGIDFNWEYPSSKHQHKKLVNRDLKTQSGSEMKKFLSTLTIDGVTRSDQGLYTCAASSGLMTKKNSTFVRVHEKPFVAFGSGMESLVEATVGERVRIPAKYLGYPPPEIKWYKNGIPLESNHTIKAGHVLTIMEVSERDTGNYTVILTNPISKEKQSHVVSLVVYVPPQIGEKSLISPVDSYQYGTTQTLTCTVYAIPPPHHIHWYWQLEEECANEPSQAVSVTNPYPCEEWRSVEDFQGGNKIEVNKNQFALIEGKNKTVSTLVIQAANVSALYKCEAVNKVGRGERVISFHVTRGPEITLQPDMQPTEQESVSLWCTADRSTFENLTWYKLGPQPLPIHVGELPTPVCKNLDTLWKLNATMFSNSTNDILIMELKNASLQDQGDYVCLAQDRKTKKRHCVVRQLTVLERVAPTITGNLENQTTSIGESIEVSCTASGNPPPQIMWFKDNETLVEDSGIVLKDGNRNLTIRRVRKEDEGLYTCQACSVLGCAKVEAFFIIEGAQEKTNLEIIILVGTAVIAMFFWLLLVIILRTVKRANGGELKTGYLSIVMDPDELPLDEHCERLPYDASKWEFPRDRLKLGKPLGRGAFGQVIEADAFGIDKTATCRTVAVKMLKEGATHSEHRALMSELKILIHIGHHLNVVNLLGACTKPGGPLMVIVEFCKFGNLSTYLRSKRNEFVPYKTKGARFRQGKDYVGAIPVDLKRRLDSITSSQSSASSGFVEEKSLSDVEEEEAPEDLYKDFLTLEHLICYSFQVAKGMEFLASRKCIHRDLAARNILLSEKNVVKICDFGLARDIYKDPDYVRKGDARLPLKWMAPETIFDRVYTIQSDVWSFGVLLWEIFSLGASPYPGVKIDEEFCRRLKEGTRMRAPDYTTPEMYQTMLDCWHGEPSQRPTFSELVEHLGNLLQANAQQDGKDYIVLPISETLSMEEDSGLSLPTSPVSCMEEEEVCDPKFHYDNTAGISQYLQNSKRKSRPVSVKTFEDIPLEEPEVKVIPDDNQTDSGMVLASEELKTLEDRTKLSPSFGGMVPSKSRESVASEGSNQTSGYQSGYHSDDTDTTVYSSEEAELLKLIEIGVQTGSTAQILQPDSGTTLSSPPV

The first data set concerns the target Vascular endothelial growth factor receptor 2 (Homo sapiens, UniProt P35968). Description: Inhibitory activity against KDR.
Conditions: not given
As a reminder, the IC50 is the concentration needed to halve the response being measured. The low end stands for greater potency, the high end for weaker potency. `COc1ccc(Cl)c(Nc2ncnc3cc(OCCCN4CCCC4)cc(OC(C)C)c23)n1` gave an IC50 of 0.9 µM.
With `COc1cnc(Cl)c(Nc2ncnc3cc(OCCCN4CCOCC4)cc(OC(C)C)c23)c1`, the IC50 is 0.03 µM.
Turning to `COc1ccc(Cl)c(Nc2ncnc3cc(OCCN4CCN(C)CC4)cc(OC(C)C)c23)n1`, the half-inhibitory concentration (IC50) is 0.57 µM.
Still for that read-out and setting: the same measure for `COc1ccc(Cl)c(Nc2ncnc3cc(OCCCN4CCN(C(C)=O)CC4)cc(OC(C)C)c23)n1`: 2.7 µM.
Same read-out and setting: the same measure for `COc1ccc(Cl)c(Nc2ncnc3cc(OCCCN4CCOCC4)cc(OC4CCOCC4)c23)n1`: 5.5 µM; for `COc1ncc(Cl)c(Nc2ncnc3cc(OCCN4CCN(C(C)=O)CC4)cc(OC(C)C)c23)n1`: 15 µM.
Still for that read-out and setting: the same measure for `COc1cnc(Cl)c(Nc2ncnc3cc(OCCCN4CCOCC4)cc(OC4CCOCC4)c23)c1`: 0.03 µM.
Take `COc1ccc(Cl)c(Nc2ncnc3cc(OCCN4CCCC4)cc(OC(C)C)c23)n1`: inhibition was half-maximal at 3.6 µM (IC50).
The same measure, in the same setting: the same measure for `COc1ccc(Cl)c(Nc2ncnc3cc(OCCN4CCN(C(C)=O)CC4)cc(OC(C)C)c23)n1`: 6.3 µM.
The same measure, in the same setting: the same measure for `COc1ccc(Cl)c(Nc2ncnc3cc(OCCCN4CCOCC4)cc(OC(C)C)c23)c1`: 0.03 µM.
On the same count and under the same terms, the same measure for `COc1ccc(Cl)c(Nc2ncnc3cc(OCCN4CCOCC4)cc(OC(C)C)c23)n1`: 2.9 µM; for `COc1ccc(Cl)c(Nc2ncnc3cc(OCCCN4CCN(C)CC4)cc(OC(C)C)c23)n1`: 0.68 µM; for `COc1ccc(Cl)c(Nc2ncnc3cc(OCCCN4CCOCC4)cc(OC(C)C)c23)n1`: 1.9 µM.
Take `COc1cc(Nc2ncnc3cc(OCCCN4CCOCC4)cc(OC4CCOCC4)c23)c(Cl)cn1`: 0.08 µM corresponded to half-maximal inhibition (IC50).
The compound `COc1cnc(Cl)c(Nc2ncnc3cc(OCCN4CCN(C(C)=O)CC4)cc(OC(C)C)c23)n1` showed an IC50 of 2.8 µM.
For the compound `COc1cc(Nc2ncnc3cc(OCCCN4CCOCC4)cc(OC(C)C)c23)c(Cl)cn1`, the IC50 is < 0.002 µM.
Regarding `COc1ccc(Cl)c(Nc2ncnc3cc(OCCCN4CCOCC4)cc(OC4CCOCC4)c23)c1`, the midpoint of inhibition, the IC50, lay at 0.4 µM. This counts as sub-micromolar.

A further data set relates to A549. Description: Inhibition of A549 cell migration. The settings on record: Homo sapiens. The format is functional, cell-based.
`COc1ccc(Cl)c(Nc2ncnc3cc(OCCCN4CCCC4)cc(OC(C)C)c23)n1` had an IC50 of 0.14 µM.
Still for that read-out and setting: the same measure for `COc1ccc(Cl)c(Nc2ncnc3cc(OCCN4CCN(C)CC4)cc(OC(C)C)c23)n1`: 0.17 µM; for `COc1ccc(Cl)c(Nc2ncnc3cc(OCCCN4CCN(C(C)=O)CC4)cc(OC(C)C)c23)n1`: 0.09 µM.
Still for that read-out and setting: the same measure for `COc1ccc(Cl)c(Nc2ncnc3cc(OCCCN4CCOCC4)cc(OC4CCOCC4)c23)n1`: 0.16 µM; for `COc1ncc(Cl)c(Nc2ncnc3cc(OCCN4CCN(C(C)=O)CC4)cc(OC(C)C)c23)n1`: 0.27 µM; for `COc1cnc(Cl)c(Nc2ncnc3cc(OCCCN4CCOCC4)cc(OC4CCOCC4)c23)c1`: 0.29 µM.
Still for that read-out and setting: the same measure for `COc1ccc(Cl)c(Nc2ncnc3cc(OCCN4CCCC4)cc(OC(C)C)c23)n1`: 0.08 µM; for `COc1ccc(Cl)c(Nc2ncnc3cc(OCCN4CCN(C(C)=O)CC4)cc(OC(C)C)c23)n1`: 0.09 µM.
As to `COc1ccc(Cl)c(Nc2ncnc3cc(OCCN4CCOCC4)cc(OC(C)C)c23)n1`, the IC50 was 0.13 µM.
Regarding `COc1ccc(Cl)c(Nc2ncnc3cc(OCCCN4CCN(C)CC4)cc(OC(C)C)c23)n1`, half-maximal inhibition (IC50) required 0.09 µM. The IC50 values of the last two compounds are within 1.5-fold of each other.
Same read-out and setting: the same measure for `COc1ccc(Cl)c(Nc2ncnc3cc(OCCCN4CCOCC4)cc(OC(C)C)c23)n1`: 0.09 µM.
Same read-out and setting: the same measure for `COc1cnc(Cl)c(Nc2ncnc3cc(OCCN4CCN(C(C)=O)CC4)cc(OC(C)C)c23)n1`: 0.14 µM.

Another data set concerns the target Proto-oncogene tyrosine-protein kinase Src (Homo sapiens, UniProt P12931). Description: Inhibitory activity against c-Src kinase.
Conditions: not given
Compound `COc1ccc(Cl)c(Nc2ncnc3cc(OCCCN4CCCC4)cc(OC(C)C)c23)n1` displayed an IC50 of 0.006 µM.
Turning to `COc1cnc(Cl)c(Nc2ncnc3cc(OCCCN4CCOCC4)cc(OC(C)C)c23)c1`, half-maximal inhibition (IC50) required 0.005 µM. This IC50 and that of the compound before are within 1.5-fold of each other.
On the same count and under the same terms, the same measure for `COc1ccc(Cl)c(Nc2ncnc3cc(OCCN4CCN(C)CC4)cc(OC(C)C)c23)n1`: 0.007 µM.
The same measure, in the same setting: the same measure for `COc1ccc(Cl)c(Nc2ncnc3cc(OCCCN4CCN(C(C)=O)CC4)cc(OC(C)C)c23)n1`: < 0.004 µM; for `COc1ccc(Cl)c(Nc2ncnc3cc(OCCCN4CCOCC4)cc(OC4CCOCC4)c23)n1`: 0.005 µM; for `COc1ncc(Cl)c(Nc2ncnc3cc(OCCN4CCN(C(C)=O)CC4)cc(OC(C)C)c23)n1`: 0.015 µM.
Still for that read-out and setting: the same measure for `COc1cnc(Cl)c(Nc2ncnc3cc(OCCCN4CCOCC4)cc(OC4CCOCC4)c23)c1`: 0.007 µM.
For the compound `COc1ccc(Cl)c(Nc2ncnc3cc(OCCN4CCCC4)cc(OC(C)C)c23)n1`, the IC50 stood at 0.015 µM.
`COc1ccc(Cl)c(Nc2ncnc3cc(OCCN4CCN(C(C)=O)CC4)cc(OC(C)C)c23)n1` displayed a half-maximal inhibitory concentration (IC50) of 0.01 µM.
`COc1ccc(Cl)c(Nc2ncnc3cc(OCCCN4CCOCC4)cc(OC(C)C)c23)c1` showed an IC50 of 0.04 µM.
On the same count and under the same terms, the same measure for `COc1ccc(Cl)c(Nc2ncnc3cc(OCCN4CCOCC4)cc(OC(C)C)c23)n1`: 0.02 µM; for `COc1ccc(Cl)c(Nc2ncnc3cc(OCCCN4CCN(C)CC4)cc(OC(C)C)c23)n1`: < 0.004 µM; for `COc1ccc(Cl)c(Nc2ncnc3cc(OCCCN4CCOCC4)cc(OC(C)C)c23)n1`: < 0.004 µM.
Turning to `COc1cc(Nc2ncnc3cc(OCCCN4CCOCC4)cc(OC4CCOCC4)c23)c(Cl)cn1`, it took 0.4 µM to reach half-maximal inhibition (IC50).
Same read-out and setting: the same measure for `COc1cnc(Cl)c(Nc2ncnc3cc(OCCN4CCN(C(C)=O)CC4)cc(OC(C)C)c23)n1`: 0.008 µM; for `COc1cc(Nc2ncnc3cc(OCCCN4CCOCC4)cc(OC(C)C)c23)c(Cl)cn1`: 0.035 µM.
On the same count and under the same terms, the same measure for `COc1ccc(Cl)c(Nc2ncnc3cc(OCCCN4CCOCC4)cc(OC4CCOCC4)c23)c1`: 0.01 µM.

Another data set has as its system Rattus norvegicus. Description: AUC(0-6 h) in rat administered with 2 mg/kg, po. The format is ADME, organism-based, Plasma. On the set-up: time < 6 hr, dose 2 mg/kg, route oral. The conditions noted are these: in vivo.
Turning to `COc1ccc(Cl)c(Nc2ncnc3cc(OCCN4CCN(C(C)=O)CC4)cc(OC(C)C)c23)n1`, the AUC is 0.64 uMh.
On the same count and under the same terms, the same measure for `COc1cnc(Cl)c(Nc2ncnc3cc(OCCN4CCN(C(C)=O)CC4)cc(OC(C)C)c23)n1`: 0.61 uMh.

Test system in another data set: not listed separately
Description: Solubility in phosphate buffer at pH 7.4. The format is physicochemical.
Conditions: not given
What is called solubility is how much of the substance goes into solution per volume. With `COc1ccc(Cl)c(Nc2ncnc3cc(OCCN4CCN(C(C)=O)CC4)cc(OC(C)C)c23)n1`, the solubility came out at 43 µM (≈ 22.1 µg/mL).

Test system in another data set: not listed separately
In words: Cmax in rat administered with 2 mg/kg, po. The format is ADME, organism-based. Set-up: dose 2 mg/kg, route oral. The conditions noted are these: in vivo.
As usually defined, the Cmax is the peak of the concentration-time curve. In turn, `COc1ccc(Cl)c(Nc2ncnc3cc(OCCN4CCN(C(C)=O)CC4)cc(OC(C)C)c23)n1` registered a Cmax of 310 nM.
The same measure, in the same setting: the same measure for `COc1cnc(Cl)c(Nc2ncnc3cc(OCCN4CCN(C(C)=O)CC4)cc(OC(C)C)c23)n1`: 420 nM.

Test system in a further data set: not listed separately
Description: Percent of unbound ligand in rat plasma. The format is ADME, organism-based.
Conditions: not given
For orientation: fraction unbound means the share of the substance not bound to proteins or other matrix. Turning to `COc1ccc(Cl)c(Nc2ncnc3cc(OCCN4CCN(C(C)=O)CC4)cc(OC(C)C)c23)n1`, the fraction unbound worked out at 0.08.
